The results in this text go back to PubChem BioAssay AID651977 (The Scripps Research Institute Molecular Screening Center, 2013).

SMILES strings stand for the structures. The source made the active and inactive calls. How the calls were made is not given here.

For this assay, the target named is Steroidogenic factor 1 (Homo sapiens) (UniProt Q13285). Briefly: dose-dependent inverse agonism at SF1 – cell-based, luminescence, dose response, selectivity assay for LRH-1 inverse agonist project, late-stage follow-up (AID 651977). The note with it: SF1 cell-based luciferase reporter. On the technique in general: In a reporter assay the amount or activity of a reporter protein is the signal.
Chain of Steroidogenic factor 1 (Homo sapiens) (Q13285 whole entry, looked up): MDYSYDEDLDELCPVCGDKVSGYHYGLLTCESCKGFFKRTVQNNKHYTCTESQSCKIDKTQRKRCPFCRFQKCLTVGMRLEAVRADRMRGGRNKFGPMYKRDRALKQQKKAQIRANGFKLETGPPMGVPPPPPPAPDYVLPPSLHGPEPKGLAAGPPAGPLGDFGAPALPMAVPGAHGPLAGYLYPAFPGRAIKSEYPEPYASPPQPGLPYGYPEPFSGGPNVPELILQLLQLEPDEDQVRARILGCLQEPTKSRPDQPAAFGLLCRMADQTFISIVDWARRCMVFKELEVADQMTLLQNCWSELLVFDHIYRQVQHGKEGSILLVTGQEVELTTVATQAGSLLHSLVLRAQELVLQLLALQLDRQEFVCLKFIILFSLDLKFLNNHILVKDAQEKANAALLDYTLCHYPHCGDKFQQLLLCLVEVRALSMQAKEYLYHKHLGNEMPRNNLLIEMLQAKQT

By IC50 is commonly meant the concentration needed to halve the response being measured. `O=C(Nc1ccc(S(=O)(=O)N2CCOCC2)cc1)c1cccc([N+](=O)[O-])c1`: the IC50 is > 12 µM (inactive).
